Reference: US8394797B2, “Substituted pyrazole sigma receptor antagonists” (Laboratorios Del Dr. Esteve, S.A., priority 2004, dated 2013)
Where a name gives a salt, the structure may show the parent alone. Read-outs that look alike come from different tables or passages of the source.

How the values were obtained:
σ2-receptor = target: T1, σ2-receptor (Mus musculus, UniProt Q8VD00); experiment: Sigma-2 receptor binding, [3H]-DTG, brains from sigma-1 knockout mice; conditions: for inhibition at 1 µM: 2 h, tested compound at 10^-6 M, [3H]-DTG 3 nM, read-out: binding sigma-2 (*) % of radioactively labeled compound replaced by the tested compound; for Ki: [3H]-DTG, sigma-1 knockout mouse brain
T1 construct: brains from sigma receptor type I (sigma-1) knockout mice were homogenized; from tissue; host or cells: brain membranes of sigma-1 knockout mice
T1 sequence (Q8VD00 1-176): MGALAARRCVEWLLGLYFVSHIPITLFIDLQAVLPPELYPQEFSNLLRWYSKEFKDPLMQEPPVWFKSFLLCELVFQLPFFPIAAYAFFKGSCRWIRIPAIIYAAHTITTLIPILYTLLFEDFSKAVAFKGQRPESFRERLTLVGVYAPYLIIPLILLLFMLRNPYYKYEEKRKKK
Description: In brief, brains from sigma receptor type I (sigma-1) knockout mice were homogenized in a volume of 10 mL/g tissue net weight of ice-cold 10 mM Tris-HCl, pH 7.4, containing 320 mM sucrose (Tris-sucrose buffer) with a Potter-Elvehjem homogenizer (10 strokes at 500 r.p.m.) The homogenates were then centrifuged at 1000 g for 10 min at 4° C., and the supernatants were saved. The pellets were resuspended by vortexing in 2 mL/g ice-cold Tris-sucrose buffer and centrifuged again at 1000 g for 10 min. The combined 1000 g supernatants were centrifuged at 31000 g for 15 min at 4° C. The pellets were resuspended by vortexing in 3 mL/g 10 mM Tris-HCl, pH 7.4, and the suspension was kept at 25° C. for 15 min.
The assay tubes contained 10 μL of [^3H]-DTG (final concentration of 3 nM), 400 μL of the tissue suspension (5.3 mL/g in 50 mM Tris-HCl, pH 8.0) to a final assay volume of 0.5 mL. Non-specific binding was defined by addition of a final concentration of 1 μM haloperidol. […] Filters were washed with three times with 5 mL volumes of cold Tris-HCl buffer (10 mM, pH 8.0). Following addition of scintillation cocktail samples were allowed to equilibrate overnight.

σ1-receptor = target: T2, σ1-receptor (Cavia porcellus, UniProt Q60492); experiment: Sigma-1 receptor binding, [3H](+)-pentazocine, brain membranes; design: species or system guinea pig; conditions: for inhibition at 1 µM: 2.5 h, read-out: binding sigma-1 (*) % of radioactively labeled compound replaced by the tested compound
T2 construct: guinea pig brains were homogenized; from tissue; host or cells: guinea pig brain membranes
T2 sequence (Q60492 whole entry): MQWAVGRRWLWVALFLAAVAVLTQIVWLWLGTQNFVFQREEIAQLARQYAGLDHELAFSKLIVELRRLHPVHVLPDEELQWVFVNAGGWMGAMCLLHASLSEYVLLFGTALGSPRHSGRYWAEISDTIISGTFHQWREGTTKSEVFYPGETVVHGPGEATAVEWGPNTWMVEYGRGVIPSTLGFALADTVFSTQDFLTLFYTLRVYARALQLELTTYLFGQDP

[1] = system: capsaicin-induced mechanical allodynia in mice; experiment: Effect on capsaicin in development of mechanical allodynia (von Frey filaments); assay type: in vivo; conditions: for antiallodynic effect: mice, capsaicin, von Frey filaments
Description: Effect on Capsaicin in Development of Mechanical Allodynia This model uses the von-Frey Filaments and is a model to test the effects or symptoms of neuropathic pain, allodynia etc. […]. After habituation mice were according to FIG. 1 first treated with the test-compound (or solvent in controls). Then […] (1% DMSO) is injected into their paw resulting in developing pain in the effected paw. The effected paw is then treated with a mechanical stimulus and the latency time before the paw is withdrawn is measured.

[2] = system: carrageenan-induced thermal hyperalgesia in mice; experiment: Carrageenan-induced thermal hyperalgesia model (plantar test, Hargreaves); assay type: in vivo
Description: Some compounds were also evaluated for antinociceptive activity in the carrageenan-induced thermal hyperalgesia model in mice. In this model, two hours after carrageenan injection into the paw, the plantar test was used to assess thermal hyperalgesia according to the method described by Hargreaves et al. (1988). The compounds of Examples 58 and 62.

[3] = tested compound at 10^-6 M, [3H](+)-pentazocine 0.5 nM
[4] = [3H](+)-pentazocine, guinea pig brain membranes, read-out: binding sigma-1 Ki

Row | SMILES | melting point [°C] | inhibition at 1 µM (σ2-receptor) [%] | inhibition at 1 µM (σ1-receptor; [3]) [%] | Ki (σ1-receptor; [4]) [nM] | Ki (σ2-receptor) [nM] | Ki (σ1-receptor) [nM] | inhibition at 1 µM (σ1-receptor) [%] | antiallodynic effect [1] | analgesia ([2]; 2.5 mg/kg) [%] | analgesia ([2]; 10 mg/kg) [%] | activity in the carrageenan thermal hyperalgesia model ([2]; mice, two hours after carrageenan) | analgesia ([1]; 2 mg/kg) [%]
1 | c1ccc(CN2CCN(CCC3CCCc4c3cnn4-c3ccccc3)CC2)cc1 (stereo not shown) [Example 10, 4-(2-(4-benzylpiperazin-1-yl)ethyl)-4,5,6,7-tetrahydro-1-phenyl-1H-indazole] | 98 to 101 | 70.2 | 100 | 6.1 |  |  |  |  |  |  |  | 
2 | O=C(O)C(=O)O.c1ccc(-n2ncc3c2CCCC3CCN2Cc3ccccc3C2)cc1 (stereo not shown) [Example 56, 4,5,6,7-tetrahydro-4-(2-(isoindolin-2-yl)ethyl)-1-phenyl-1H-indazole oxalate] | 195.7 to 200 | 109 | 106 | 0.3 | 1.4 |  |  |  |  |  |  | 
3 | c1ccc(-n2ncc3c2CCC3CCn2ccnc2)cc1 (stereo not shown) [Example 45, 4-(2-(1H-imidazol-1-yl)ethyl)-1,4,5,6-tetrahydro-1-phenylcyclopenta[c]pyrazole] | 102.9 to 105.7 | 22.8 | 76.4 | 143 |  |  |  |  |  |  |  | 
4 | O=C(O)C(=O)O.c1ccc(-n2ncc3c2CCC3CCN2CCc3ccccc3C2)cc1 (stereo not shown) [Example 44, 1,2,3,4-tetrahydro-2-(2-(1,4,5,6-tetrahydro-1-phenylcyclopenta[c]pyrazol-4-yl)ethyl)isoquinoline oxalate] | 200.5 to 203 | 99.4 | 106 | 2 | 159 |  |  |  |  |  |  | 
5 | C[C@@H]1CN(CCC2CCCc3c2cnn3-c2ccccc2)C[C@H](C)O1.O=C(O)C(=O)O (stereo partly drawn) [Example 49, cis-4,5,6,7-tetrahydro-4-(2-(2,6-dimethylmorpholin-4-yl)ethyl)-1-phenyl-1H-indazole oxalate] | 186.6 to 190 | 94.6 | 101 | 7.6 |  |  |  |  |  |  |  | 
6 | C(/CN1CCCCCC1)=C1/CCCc2c1cnn2-c1ccccc1.O=C(O)C(=O)O [Example 16, (E)-4-(2-(azepan-1-yl)ethylidene)-4,5,6,7-tetrahydro-1-phenyl-1H-indazole oxalate] | 171 to 173 | 93 | 99.9 | 1.5 |  |  |  |  |  |  |  | 
7 | O=C(O)C(=O)O.c1ccc(-n2ncc3c2CCC3CCN2Cc3ccccc3C2)cc1 (stereo not shown) [Example 35, 2-(2-(1,4,5,6-tetrahydro-1-phenylcyclopenta[c]pyrazol-4-yl)ethyl)isoindoline oxalate] | 195 to 197 | 26.4 | 101 | 9.3 |  |  |  |  |  |  |  | 
8 | O=C(O)C(=O)O.c1ccc(-n2ncc3c2CCC3CCN2CCC3(CC2)OCc2ccccc23)cc1 (stereo not shown) [Example 51, 1,4,5,6-tetrahydro-1-phenyl-4-(2-[spiro[isobenzofuran-1(3H), 4′-piperidin]-1′-yl]ethyl)cyclopenta[c]pyrazole oxalate] | 170.5 to 173.6 | 113 |  |  |  | 31.3 | 107 |  |  |  |  | 
9 | C(/CN1CCC2(CC1)OCc1ccccc12)=C1/CCCc2c1cnn2-c1ccccc1.O=C(O)C(=O)O [Example 19, (E)-4,5,6,7-tetrahydro-1-phenyl-4-(2-[spiro[isobenzofuran-1(3H), 4′-piperidin]-1′-yl]ethylidene)-1H-indazole oxalate] | 155 to 157 | 91 |  |  | 479 | 4.9 | 100 |  |  |  |  | 
10 | C(/CN1CCCC(c2ccccc2)C1)=C1/CCCc2c1cnn2-c1ccccc1 (stereo not shown) [Example 23, (E)-4,5,6,7-tetrahydro-1-phenyl-4-(2-(3-phenylpiperidin-1-yl)ethylidene)-1H-indazole] | 136 to 138 | 67.4 | 99.4 | 23.3 |  |  |  |  |  |  |  | 
11 | c1ccc(C2CCN(CCC3CCc4c3cnn4-c3ccccc3)CC2)cc1 (stereo not shown) [Example 36, 1,4,5,6-tetrahydro-1-phenyl-4-(2-(4-phenylpiperidin-1-yl)ethyl)cyclopenta[c]pyrazole] | 83 to 86 | 87.9 | 103 | 5.9 |  |  |  |  |  |  |  | 
12 | Clc1ccc(-n2ncc3c2CCCC3CCN2CCOCC2)cc1Cl.O=C(O)C(=O)O (stereo not shown) [Example 7, 1-(3,4-dichlorophenyl)-4,5,6,7-tetrahydro-4-(2-(morpholin-4-yl)ethyl)-1H-indazole oxalate] | 148 to 149.8 | 98.1 | 100 | 4.3 |  |  |  |  |  |  |  | 
13 | C(/CN1CCOCC1)=C1/CCCc2c1cnn2-c1ccccc1 [Example 5, (E)-4,5,6,7-tetrahydro-4-(2-(morpholin-4-yl)ethylidene)-1-phenyl-1H-indazole] | 114 to 116 | 39 | 94 | 37.2 |  |  |  |  |  |  |  | 
14 | C[C@@H]1CN(CCC2CCc3c2cnn3-c2ccccc2)C[C@H](C)O1.O=C(O)C(=O)O (stereo partly drawn) [Example 47, cis-1,4,5,6-tetrahydro-4-(2-(2,6-dimethylmorpholin-4-yl)ethyl)-1-phenylcyclopenta-[c]pyrazole oxalate] | 160.2 to 161.5 | 95.9 | 104 | 1.8 |  |  |  |  |  |  |  | 
15 | C(/CN1CCOCC1)=C1/CCCc2c1cnn2-c1ccccc1.O=C(O)C(=O)O [Example 77, (E)-4,5,6,7-tetrahydro-4-(2-(morpholin-4-yl)ethylidene)-1-phenyl-1H-indazole oxalate] |  |  |  |  |  |  |  | clear antiallodynic effect |  |  |  | 
16 | O=C(O)C(=O)O.c1ccc(-n2ncc3c2CCC3CCN2CCOCC2)cc1 (stereo not shown) [Example 31, 1,4,5,6-tetrahydro-4-(2-(morpholin-4-yl)ethyl)-1-phenylcyclopenta[c]pyrazole oxalate] | 159 to 161.8 | 88.7 | 101 | 1.2 | 17.5 |  |  |  |  |  |  | 
17 | Cn1ncc2c1CCCC2CCN1Cc2ccccc2C1.O=C(O)C(=O)O (stereo not shown) [Example 60, 4,5,6,7-tetrahydro-4-(2-(isoindolin-2-yl)ethyl)-1-methyl-1H-indazole oxalate] | 150 to 151 | 88.2 | 104 | 3.1 | 18.8 |  |  |  |  |  |  | 
18 | O=C(O)C(=O)O.c1ccc(-n2ncc3c2CCCC3CCN2CCC3(CC2)OCc2ccccc23)cc1 (stereo not shown) [Example 12, 4,5,6,7-tetrahydro-1-phenyl-4-(2-[spiro[isobenzofuran-1(3H), 4′-piperidin]-1′-yl]ethyl)-1H-indazole oxalate] | 133 to 135 | 98.8 |  |  | 37 | 0.9 | 100 |  |  |  |  | 
19 | c1ccc(-n2ncc3c2CCCC3CCN2CCOCC2)cc1 (stereo not shown) [Example 2, 4,5,6,7-tetrahydro-4-(2-(morpholin-4-yl)ethyl)-1-phenyl-1H-indazole oxalate] |  |  |  |  |  |  |  | clear antiallodynic effect |  |  |  | 
20 | Cn1ncc2c1CCCC2CCN1CCC(c2ccccc2)CC1.O=C(O)C(=O)O (stereo not shown) [Example 58, 4,5,6,7-tetrahydro-1-methyl-4-(2-(4-phenylpiperidin-1-yl)ethyl)-1H-indazole oxalate] |  | 100 | 106 | 1.1 | 6.3 |  |  | clear antiallodynic effect | 60 | ~90 | highly active | 100
